Measured values reported in US6284918A, “Selective inhibitors of prostaglandin endoperoxide synthase-2” (priority 1999, dated 2001).

Legend:
apo- and holoPGHS-2 = assay: Inactivation of cyclooxygenase activity of apo- and holoPGHS-2 and reactivation by hydroxylamine; assay type: biochemical, human; details: 10 mM inhibitor, pH 8, 37° C.
Experimental: Apo or HoloPGHS-2 ([…]) was inactivated with a 1000-fold excess of 2-acetoxythioanisole (2) at 22.5° C. in 100 mM Tris-HCl buffer, pH 8 containing […] phenol for the indicated time period, and then hydroxylamine (80 mM) in 10 mM Tris-HCl buffer, pH 7.5 was added as indicated by the arrow. Periodic 0.16 μM aliquots of holoPGHS-2 (open circles), holoPGHS-2+2-acetoxythioanisole (open squares), apoPGHS-2 (closed circles), apoPGHS-2+2-acetoxythioanisole (closed squares) were analyzed for remaining cyclooxygenase activity.
(§1) Oxygen consumption was measured at 37° C. with a Gilson model 5/6 oxygraph (Gilson Medical Electronics, Inc., Middleton, Wis.) equipped with a clark electrode and a thermostated cuvette. […] Oxygen uptake was initiated by the addition of 100 μM sodium arachidonate, and the initial reaction velocity was determined from the linear portion of the oxygen uptake curve.
ApoPGHS-2 (5 μM) or apoPGHS-2 (5 μM), reconstituted with 2 equivalents of hematin in 100 mM Tris-HCl, pH 8 at 37° C. containing 500 μM phenol was treated with 2-acetoxy-1-thioanisole (10 mM). Periodically, 0.16 μM enzyme aliquots were analyzed for remaining cyclooxygenase activity as described earlier. […] Hydroxylamine hydrochloride (80 mM) in 10 mM Tris-HCl, pH 7.5 was then added to the incubation mixture and 0.16 μM enzyme aliquots were analyzed for reactivation of the inhibited cyclooxygenase-2. […]

human PGHS-2 = target: T1, human PGHS-2 (Homo sapiens, UniProt P35354); assay: Time- and concentration-dependent inhibition of human PGHS-2, TLC assay (3 h preincubation); assay type: biochemical; details: for IC50 / IC50 (PGHS-1)/IC50 (PGHS-2): Table 2; for IC50: PGHS-2 88 nM; for IC50 (PGHS-1)/IC50 (PGHS-2): selectivity ratio, 180 min
T1 construct: made in house; host or cells: insect cells (baculovirus vectors)
T1 sequence (P35354 18-604): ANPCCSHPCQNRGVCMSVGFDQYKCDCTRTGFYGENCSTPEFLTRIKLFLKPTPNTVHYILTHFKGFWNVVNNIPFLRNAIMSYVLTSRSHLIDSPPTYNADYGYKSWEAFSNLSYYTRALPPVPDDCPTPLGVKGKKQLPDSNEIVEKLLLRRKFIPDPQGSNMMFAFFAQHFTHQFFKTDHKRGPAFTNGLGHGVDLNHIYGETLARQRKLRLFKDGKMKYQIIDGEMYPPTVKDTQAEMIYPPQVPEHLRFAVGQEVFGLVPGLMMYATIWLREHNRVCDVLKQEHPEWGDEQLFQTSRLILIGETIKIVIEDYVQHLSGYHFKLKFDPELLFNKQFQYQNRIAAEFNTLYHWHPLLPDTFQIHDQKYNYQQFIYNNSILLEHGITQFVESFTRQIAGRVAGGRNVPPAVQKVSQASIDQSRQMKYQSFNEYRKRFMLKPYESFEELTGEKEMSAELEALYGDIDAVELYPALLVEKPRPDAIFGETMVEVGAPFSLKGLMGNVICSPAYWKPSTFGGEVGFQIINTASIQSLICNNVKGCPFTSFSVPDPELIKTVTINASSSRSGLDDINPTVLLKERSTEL
Experimental: (§2) Cyclooxygenase activity of ovine PGHS-1 (22 nM) or human PGHS-2 (88 nM) was assayed by TLC. Reaction mixtures of 200 μL consisted of hematin-reconstituted protein in 100 mM Tris-HCl, pH 8.0, 500 μM phenol, and [1-^14 C]arachidonic acid (50 μM, 57 mCi/mmol). For the time-dependent inhibition assay, hematin-reconstituted PGHS-1 (22 nM) or PGHS-2 (88 nM) was preincubated at room temperature for 2 hours and then at 0° C. for 1 hour with varying concentrations of inhibitor in DMSO followed by the addition of [1-^14 C]arachidonic acid (50 μM) for 30 seconds at 37° C. Reactions were terminated by solvent extraction in diethyl ether/methanol/1 M citrate, pH 4.0 (30:4:1). The organic phase was spotted on a TLC plate (Amersham Corp.). The plate was developed with ethyl acetate/methylene chloride/glacial acetic acid (75:25:1) at 4° C. Radiolabeled products were quantitated with a radioactivity scanner (Bioscan, Inc., Washington, D.C.).
(§3) conducted at room temperature for 3 hours. The cyclooxygenase reaction was
(§4) initiated by the addition of 14C-arachidonic acid (50 μM) to the
(§5) incubation mixtures at 37 C for 30 seconds.
(§6) conducted at room temperature for 3 hours. The cyclooygenase reaction was
(§7) initiated by the addition of ^14 C-arachidonic acid ([…]) to the
(§8) incubation mixtures at 37° C. for 30 sec.

[1] = tested on: PGHS-2 in activated RAW264.7 macrophages; assay: Inhibition of PGHS-2 in activated RAW264.7 macrophages; assay type: cell-based, murine; details: RAW 264.7, LPS and γ-interferon; for inhibitory effect on PGHS-2 in activated macrophages compared with aspirin: FIGS. 14 and 15, aspirin 100 μM; for inhibition of cyclooxygenase activity in activated macrophages: FIG. 16
Experimental: RAW 264.7 cells were activated for 7 hours at 37° C. in serum free DMEM with LPS (500 ng/mL) and γ-interferon (10 U/mL).
RAW 264.7 cells were activated for 7 hours at 37° C. in serum free DMEM with LPS (500 ng/mL) and γ-interferon (10 U/mL). […] The cyclooxygenase reaction was initiated by adding [1-^14 C]-arachidonic acid (20 μM) for 15 min at 37° C.
The murine macrophage cell line RAW264.7 were seeded overnight for 30% confluency the following morning. Overnight DMEM and fetal bovine serum (FBS) was removed and 2 mL DMEM containing 1.5% FBS±500 ng/mL LPS and 10 units/mL interferon-γ were added for 7.5 hours at 37° C. […] Arachidonic acid metabolism was measured by adding 20 μM 14C-AA for 15 min at room temperature. Aliquots (200 μL) were removed into termination solution and run on TLC plates. In the case of 2-acetoxythioanisole (2), following 8 hours of activation, 500 μM 2 was added for the next 3.5 hours. After 11.5 hours of activation, 20 μM [1-^14 C]arachidonic acid was incubated with the cells for 20 minutes at room temperature, and total products were determined by TLC.

holoPGHS-2 = assay: pH dependence of time-dependent inhibition of cyclooxygenase activity of holoPGHS-2, oxygen uptake assay; assay type: biochemical, human
Experimental: ApoPGHS-2 (5 μM, 1.62 μg/μL) in 100 mM sodium phosphate buffer of pH 6, 7, 8, and 9 was reconstituted with 2 equivalents of hematin. Compound 2 (1000-fold excess) in DMSO was added to the reaction mixture. Periodically, 0.16 μM enzyme aliquots (final inhibitor concentration ~178 μM) were analyzed for remaining cyclooxygenase activity. Open circles, cyclooxygenase activity of holoPGHS-2 treated with 2 at pH 6; closed circles, cyclooxygenase activity of holoPGHS-2+2 at pH 7; open squares, cyclooxygenase activity of holoPGHS-2+2 at pH 8; closed squares, cyclooxygenase activity of holoPGHS-2+2 at pH 9. Control experiments in the absence of inhibitor remained linear throughout the assay period.
ApoPGHS-2 (5 μM, 1.62 μg/μL) in 100 mM sodium phosphate buffer of pH 6, 7, 8, and 9 was reconstituted with 2 equivalents of hematin. Compound 54 (181 μM) in DMSO was added to the reaction mixture. Periodically, 0.16 μM enzyme aliquots (final inhibitor concentration ~6 μM) were analyzed for remaining cyclooxygenase activity. […]
as §1, with “curve. […]” for “curve.”

ovine PGHS-1 [2] = target: T2, ovine PGHS-1 (Ovis aries, UniProt P05979); assay: Time- and concentration-dependent inhibition of ovine PGHS-1, TLC assay (3 h preincubation); assay type: biochemical; details: Table 2; PGHS-1 22 nM, 3 h at room temperature
T2 construct: PGHS-1 was purified from sheep seminal vesicles as described earlier; tissue Oxford Biomedical Research, Inc. (supplier of the sheep seminal vesicles); host or cells: sheep seminal vesicles
T2 sequence (P05979 25-600): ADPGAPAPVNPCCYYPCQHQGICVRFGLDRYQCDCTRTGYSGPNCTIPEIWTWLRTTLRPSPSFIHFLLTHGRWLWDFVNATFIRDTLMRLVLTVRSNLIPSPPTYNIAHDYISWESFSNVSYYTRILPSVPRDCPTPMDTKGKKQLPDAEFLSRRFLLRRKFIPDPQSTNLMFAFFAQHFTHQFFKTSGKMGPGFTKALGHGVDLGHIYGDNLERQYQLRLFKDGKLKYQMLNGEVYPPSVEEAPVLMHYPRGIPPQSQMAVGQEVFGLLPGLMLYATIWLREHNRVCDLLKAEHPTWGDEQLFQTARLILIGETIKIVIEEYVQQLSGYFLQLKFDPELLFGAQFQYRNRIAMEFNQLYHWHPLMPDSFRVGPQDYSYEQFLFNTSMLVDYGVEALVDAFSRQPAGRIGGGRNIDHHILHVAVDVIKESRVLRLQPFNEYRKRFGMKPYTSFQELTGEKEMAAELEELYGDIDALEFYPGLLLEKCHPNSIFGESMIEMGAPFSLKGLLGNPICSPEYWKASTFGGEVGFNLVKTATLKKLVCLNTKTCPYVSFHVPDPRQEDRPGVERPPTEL
Experimental: as §2, §3, §4, §5, §6, §7, §8

apoPGHS-1 = assay: Inhibition of cyclooxygenase activity of apoPGHS-1 and reactivation by hydroxylamine; assay type: biochemical, ovine
ovine PGHS-1 [3] = target: T2, ovine PGHS-1; assay: Time- and concentration-dependent inhibition of ovine PGHS-1, TLC assay (3 h preincubation); assay type: biochemical; details: FIG. 5; 1 h at room temperature

SMILES | IC50 (human PGHS-2; 3 h at room temperature) [µM] | IC50 (PGHS-1)/IC50 (PGHS-2) (human PGHS-2) | inhibitory effect on PGHS-2 in activated macrophages compared with aspirin [1] | IC50 (ovine PGHS-1 [2]) [µM] | inhibition of cyclooxygenase activity in activated macrophages [1] | other results
CSc1ccccc1OC(C)=O [Compound 2, 2-acetoxythioanisole] | 250 | > 100 | greater inhibitory effect on PGHS-2 in activated macrophages than aspirin |  |  | inhibition of cyclooxygenase activity (apo- and holoPGHS-2): greater than 70%; inhibition of cyclooxygenase activity of holoPGHS-2 (holoPGHS-2; FIG. 7, pH 9, 10 mM inhibitor): greatly inhibited
CCCCCCCSc1ccccc1OC(C)=O [Compound 54, 2-Acetoxyphenylheptyl sulfide] | 2 | 3 | greater inhibitory effect on PGHS-2 in activated macrophages than aspirin | 6 | greatly inhibited | inhibition of cyclooxygenase activity of human holoPGHS-2 (in words) (human PGHS-2; FIG. 9, 3 h at room temperature): greatly inhibited; pH dependency of inhibition of cyclooxygenase activity of human holoPGHS-2 (holoPGHS-2; FIG. 10, pH 6, 7, 8, 9, 181 μM): greatest inhibition seen at pH 9
CCCCC#CCSc1ccccc1OC(C)=O [Compound 87, 2-Acetoxyphenyl-hept-2-ynyl sulfide] |  | 21 |  | > 17 | greatly inhibited | inhibition of cyclooxygenase activity of human holoPGHS-2 (in words) (human PGHS-2; FIGS. 12 and 13, 1-16 μM): greatly inhibited
CC(=O)n1ccnc1 [N-acetylimidazole] |  |  |  |  |  | inhibition of cyclooxygenase activity of apoPGHS-1 (apoPGHS-1): inhibits the cyclooxygenase activity of apoPGHS-1; reactivation after addition of hydroxylamine (apoPGHS-1; hydroxylamine added): the enzyme activity is regenerated
CC(=O)Oc1ccccc1C(=O)O [aspirin] |  |  |  |  |  | inhibitory effect on PGHS-1 versus PGHS-2 (ovine PGHS-1 [3]): greater inhibitory effect on PGHS-1 than PGHS-2
